Results as given in patent US20240246960A1 (adMare Therapeutics Society, priority 2021, published 2024).

Key:
DNA-PK = biological target: T1, DNA-PK (Homo sapiens, UniProt P78527); assay: DNA-PK Assay for Biochemical Enzymatic Inhibition (ADP Glo Kinase assay); conditions: Table 1
T1 construct: purchased Invitrogen PR9107A
Procedure, shortened: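 Human DNA-PK (25 ng) preincubated 15 min with compounds (ten three-fold dilutions) in HEPES pH 7.5, MgCl2, KCl, calf thymus DNA buffer, then substrate 434.4 μM and ATP 64.4 μM (final) for 60 min at room temperature. ADP-Glo luminescence; percent inhibition fitted by four-parameter regression for IC50.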

[1] = Hepatocyte stability assay, mouse hepatocytes; format: in vitro ADME; conditions: for hepatocyte CLint at 1 uM: male, CD-1, mouse, cryopreserved hepatocytes, pH 7.3, 0.7 million cells per mL, 1 uM compound
Procedure, shortened: (§1)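 Pooled cryopreserved hepatocytes (male CD-1 mouse, or mixed-gender human donors; ≥10 each) at 0.7 million viable cells/mL in Krebs-Henseleit buffer pH 7.3, with 1 uM compound (≤0.01% DMSO). Incubated up to 2 h at 37 °C/5% CO2, quenched with acetonitrile; parent compound followed by HPLC-MS/MS peak area.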

[2] = Hepatocyte stability assay, human hepatocytes; format: in vitro ADME; conditions: for hepatocyte CLint at 1 uM: both sexes, human, cryopreserved hepatocytes, pH 7.3, 0.7 million cells per mL, 1 uM compound
Procedure, shortened: as §1

[3] = Microsomal stability assay, human liver microsomes; format: in vitro ADME; conditions: for microsomal CLint at 0.1 uM: both sexes, human, liver microsomes, pH 7.4, 0.1 mg/mL microsomes, 0.1 uM compound
Description: Samples were then mixed and centrifuged. Supernatants were used for HPLC-MS/MS analysis. […] Peak areas corresponding to the test compound were recorded.

[4] = Microsomal stability assay, mouse liver microsomes; conditions: for microsomal CLint at 0.1 uM: male, CD-1, mouse, liver microsomes, pH 7.4, Microsomal Stability Mouse Clint, 0.1 mg/mL microsomes, 0.1 uM compound

Row | Compound | IC50 (DNA-PK) [nM] | Hepatocyte Stability (mouse) % rem. 120 min [1] | hepatocyte CLint at 1 uM [1] [µL/min/1e6 cells] | Hepatocyte Stability (human) % rem. 120 min [2] | hepatocyte CLint at 1 uM [2] [µL/min/1e6 cells] | Microsomal Stability (human) % rem. 60 min [3] | microsomal CLint at 0.1 uM [3] [µL/min/mg] | Microsomal Stability (mouse) % rem. 60 min [4] | microsomal CLint at 0.1 uM [4] [µL/min/mg]
1 | c1cnc2cc(N3CCOCC3)nc(O[C@H]3CC[C@@H](Nc4ncnc5ccsc45)CC3)c2c1 [Compound 83, N-((1s,4s)-4-((7-morpholino-1,6-naphthyridin-5-yl)oxy)cyclohexyl)thieno[3,2-d]pyrimidin-4-amine] | < 0.5 | F (% remaining = 25-50%) | > 8.2 | E (% remaining = 0-25%) | > 8.2 | – | – | – | –
2 | c1cnc2cc(N3CCOCC3)nc(O[C@H]3CC[C@@H](Nc4ncc5sccc5n4)CC3)c2c1 [Compound 84, N-((1s,4s)-4-((7-Morpholino-1,6-naphthyridin-5-yl)oxy)cyclohexyl)thieno[3,2-d]pyrimidin-2-amine] | < 0.5 | F (% remaining = 25-50%) | > 8.2 | F (% remaining = 25-50%) | > 8.2 | – | – | – | –
3 | c1cnc2cc(N3CCOCC3)nc(O[C@H]3CC[C@@H](Nc4ncc5[nH]ccc5n4)CC3)c2c1 [Compound 85, N-((1s,4s)-4-((7-Morpholino-1,6-naphthyridin-5-yl)oxy)cyclohexyl)-5H-pyrrolo[3,2-d]pyrimidin-2-amine] | < 0.5 | E (% remaining = 0-25%) | > 8.2 | E (% remaining = 0-25%) | > 8.2 | – | – | – | –
4 | Cn1ccc2nc(N[C@H]3CC[C@@H](Oc4nc(N5CCOCC5)cc5ncccc45)CC3)ncc21 [Compound 87, 5-Methyl-N-((1s,4s)-4-((7-morpholino-1,6-naphthyridin-5-yl)oxy)cyclohexyl)-5H-pyrrolo[3,2-d]pyrimidin-2-amine] | < 0.5 | F (% remaining = 25-50%) | > 8.2 | G (% remaining = 50-75%) | < 8.2 | – | – | – | –
5 | Cn1cnc2cnc(N[C@H]3CC[C@@H](Oc4nc(N5CCOCC5)cc5ncccc45)CC3)nc21 [Compound 88, 9-Methyl-N-((1s,4s)-4-((7-morpholino-1,6-naphthyridin-5-yl)oxy)cyclohexyl)-9H-purin-2-amine] | 0.5 to 1 | E (% remaining = 0-25%) | > 8.2 | E (% remaining = 0-25%) | > 8.2 | – | – | – | –
6 | c1cnc2cc(N3CCOCC3)nc(O[C@H]3CC[C@@H](Nc4ccn5nccc5n4)CC3)c2c1 [Compound 89, N-((1s,4s)-4-((7-Morpholino-1,6-naphthyridin-5-yl)oxy)cyclohexyl)pyrazolo[1,5-a]pyrimidin-5-amine] | 0.5 to 1 | F (% remaining = 25-50%) | > 8.2 | G (% remaining = 50-75%) | < 8.2 | – | – | – | –
7 | O=C(N[C@H]1CC[C@@H](Oc2nc(N3CCOCC3)cc3ncccc23)CC1)c1ccncc1 [Compound 113, N-((1s,4s)-4-((7-morpholino-1,6-naphthyridin-5-yl)oxy)cyclohexyl)isonicotinamide] | < 0.5 | G (% remaining = 50-75%) | < 8.2 | G (% remaining = 50-75%) | < 8.2 | F (% remaining = 25-50%) | > 116 | F (% remaining = 25-50%) | > 116

The remaining lines, values ahead:

Row | IC50 (DNA-PK) [nM] | Hepatocyte Stability (mouse) % rem. 120 min [1] | hepatocyte CLint at 1 uM [1] [µL/min/1e6 cells] | Hepatocyte Stability (human) % rem. 120 min [2] | hepatocyte CLint at 1 uM [2] [µL/min/1e6 cells] | Microsomal Stability (human) % rem. 60 min [3] | microsomal CLint at 0.1 uM [3] [µL/min/mg] | Microsomal Stability (mouse) % rem. 60 min [4] | microsomal CLint at 0.1 uM [4] [µL/min/mg] | Compound
8 | 0.5 to 1 | G (% remaining = 50-75%) | < 8.2 | G (% remaining = 50-75%) | < 8.2 | G (% remaining = 50-75%) | < 116 | H (% remaining = 75-100%) | < 116 | O=C(N[C@H]1CC[C@@H](Oc2nc(N3CCOCC3)cc3ncccc23)CC1)c1ccnnc1 [Compound 121, N-((1s,4s)-4-((7-morpholino-1,6-naphthyridin-5-yl)oxy)cyclohexyl)pyridazine-4-carboxamide]
9 | < 0.5 | G (% remaining = 50-75%) | < 8.2 | H (% remaining = 75-100%) | < 8.2 | F (% remaining = 25-50%) | > 116 | G (% remaining = 50-75%) | < 116 | O=C(N[C@H]1CC[C@@H](Oc2nc(N3CCOCC3)cc3ncccc23)CC1)c1cc[nH]c1 [Compound 140, N-((1s,4s)-4-((7-morpholino-1,6-naphthyridin-5-yl)oxy)cyclohexyl)-1H-pyrrole-3-carboxamide]
10 | 0.5 to 1 | F (% remaining = 25-50%) | > 8.2 | H (% remaining = 75-100%) | < 8.2 | F (% remaining = 25-50%) | > 116 | G (% remaining = 50-75%) | < 116 | O=C(N[C@H]1CC[C@@H](Oc2nc(N3CCOCC3)cc3ncccc23)CC1)c1ncco1 [Compound 142, N-((1s,4s)-4-((7-morpholino-1,6-naphthyridin-5-yl)oxy)cyclohexyl)oxazole-2-carboxamide]
11 | 0.5 to 1 | H (% remaining = 75-100%) | < 8.2 | H (% remaining = 75-100%) | < 8.2 | G (% remaining = 50-75%) | < 116 | G (% remaining = 50-75%) | < 116 | O=C(N[C@H]1CC[C@@H](Oc2nc(N3CCOCC3)cc3ncccc23)CC1)c1c[nH]cn1 [Compound 144, N-((1s,4s)-4-((7-morpholino-1,6-naphthyridin-5-yl)oxy)cyclohexyl)-1H-imidazole-4-carboxamide]
12 | < 0.5 | G (% remaining = 50-75%) | < 8.2 | H (% remaining = 75-100%) | < 8.2 | F (% remaining = 25-50%) | > 116 | G (% remaining = 50-75%) | < 116 | CS(=O)(=O)Nc1cnc2cc(N3CCOCC3)nc(O[C@H]3CC[C@@H](Nc4ncccn4)CC3)c2c1 [Compound 185, N-(7-morpholino-5-(((1s,4s)-4-(pyrimidin-2-ylamino)cyclohexyl)oxy)-1,6-naphthyridin-3-yl)methanesulfonamide]
13 | < 0.5 | F (% remaining = 25-50%) | < 8.2 | G (% remaining = 50-75%) | < 8.2 | – | – | – | – | COc1cnc(N[C@H]2CC[C@@H](Oc3nc(N4CCOCC4)cc4ncc(NS(C)(=O)=O)cc34)CC2)nc1 [Compound 203, N-(5-(((1s,4s)-4-((5-methoxypyrimidin-2-yl)amino)cyclohexyl)oxy)-7-morpholino-1,6-naphthyridin-3-yl)methanesulfonamide]
14 | 0.5 to 1 | H (% remaining = 75-100%) | < 8.2 | H (% remaining = 75-100%) | < 8.2 | – | – | – | – | CS(=O)(=O)Nc1cnc2cc(N3CCOCC3)nc(O[C@H]3CC[C@@H](NC(=O)c4ncco4)CC3)c2c1 [Compound 205, N-((1s,4s)-4-((3-(methylsulfonamido)-7-morpholino-1,6-naphthyridin-5-yl)oxy)cyclohexyl)oxazole-2-carboxamide]
